{"source": "patent US6673768B1", "about": "“Transgenic animal models for cardiac hypertrophy and methods of use thereof (treating)” (Board of Regents, The University of Texas System, priority 1997, dated 2004)", "key": {"[1]": {"system": "atrial natriuretic factor (ANF) mRNA", "assay": "ANF mRNA dot blot in primary cardiomyocytes treated with AngII", "assay_type": "cell-based, rat", "conditions": "AngII exposure", "protocol": "A-F, Primary rat cardiocytes in serum-free medium were stimulated with AngII (10 nM) or PE (10 μm) for 72 hours. Cells were then fixed and stained with anti-α-actinin antibody to reveal sarcomeres and Hoechst stain to reveal nuclei. […] G, Total RNA was isolated from primary cardiocyte cultures treated with AngII in the presence or absence of CsA as in A and analyzed for expression of GAPDH and ANF transcripts by dot blot. H, Primary rat cardiomyocytes were transiently transfected with a luciferase reporter gene linked to 3 tandem copies of the NF-AT consensus binding site. Cells were then treated with AngII or PE in the presence or absence of CsA, as described above. Forty-eight hours later, cells were harvested and luciferase activity was determined.\nTo determine whether changes in cardiomyocyte gene expression in response to AngII were also controlled by a calcineurin-dependent signaling pathway, the expression of ANF mRNA in cardiomyocytes treated with AngII was examined in the presence and absence of CsA by a dot blot assay. […] GAPDH mRNA was measured as a control.\nRNA analysis. Total RNA was collected and purified with Triazol reagent (Gibco BRL) as recommended. […]"}, "[2]": {"system": "neonatal rat cardiomyocytes", "assay": "AngII- and PE-induced hypertrophy of primary cardiomyocytes (anti-α-actinin staining, cell size and sarcomeric assembly)", "assay_type": "cell-based", "conditions": "72 hr; AngII 10 nM or PE 10 μM", "method": "To visualize primary cardiomyocytes and their sarcomeric organization, anti-α-actinin mouse monoclonal antibody was used (Sigma). […] Cells were washed in 1×phosphate-buffered saline (PBS), fixed in 3.7% paraformaldehyde for 5 minutes, washed three times with 1×PBS and then pre-blocked in 1×PBS containing 2% horse serum, 2% BSA, and 0.1% non-ionic detergent NP40 for 30 minutes. Anti-α-actinin antibody was added at a dilution of 1:800 in fresh preblock solution and incubated for an additional 30 minutes. Subsequently, the cells were washed three times in 1×PBS with 0.1% NP40. Anti-mouse TRITC-conjugated secondary antibody was then added at a dilution of 1:400 for 30 minutes in pre-block solution and the cells were again washed three times in 1×PBS containing 0.1% NP40. Nuclear staining for DNA was performed with 0.5 μg/ml of bisbenzimide in PBS for 15 minutes followed by three rinses with PBS."}}}
{"substance": "angiotensin II [AngII, humoral factor which induces the hypertrophic response in cardiomyocytes]", "values": [{"measurement": "increase in ANF mRNA", "setting": "[1]", "value": 15, "unit": "fold"}, {"measurement": "cardiomyocyte size and sarcomeric assembly after exposure to agonist", "setting": "[2]", "value": "dramatic increase in size and sarcomeric assembly"}]}
